For 8 molecules, IC50 results are on record in patent US20260274833A1 (NiKang Therapeutics, Inc., priority 2022, published 2026).

For the experiment, the target named is T1, CDK2 (Homo sapiens, UniProt P24941).
T1 construct: endogenous in cells; host or cells: OVCAR3 cells
In words: Phospho-RB measurement in OVCAR3 cells (HTRF phospho-RB cellular kit). As to conditions: inhibition of RB phosphorylation at S807/811 (HTRF, TR-FRET ratio 665/620), 24 h compound treatment, 0.3 to 10,000 nM. In kind it is cell-based. An outline of the steps:
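IC50 came from a four-parameter logistic fit of the DMSO-normalized TR-FRET ratio (665/620 nm). That ratio reflects RB phosphorylation at S807/811, read with an HTRF antibody pair 4 h after adding lysate at room temperature.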
In general terms: TR-FRET usually uses a lanthanide donor and a delayed reading to cut background.
In the case of `O=S1(=O)CC2(CC(Nc3nccc(-c4sc(C56CC(F)(C5)C6)nc4-c4cccc(NS(=O)(=O)N5CCc6ccc(C(F)(F)F)cc65)c4F)n3)C2)C1` [Example 277, N-(3-(5-(2-((2,2-dioxido-2-thiaspiro-[3.3]-heptan-6-yl)amino)pyrimidin-4-yl)-2-(3-fluorobicyclo [1.1.1]pentan-1-yl)-thiazol-4-yl)-2-fluorophenyl)-6-(trifluoromethyl) indoline-1-sulfonamide], the half-inhibitory concentration (IC50) was 0.111 µM.

`CN1CC2CCC(C1)N2c1nc(-c2cccc(NS(=O)(=O)N3Cc4ccccc4C3)c2F)c(-c2ccnc(NC3CC4(C3)CS(=O)(=O)C4)n2)s1` [Example 15, N-(3-(5-(2-((2,2-dioxido-2-thiaspiro-[3.3]-heptan-6-yl)amino)pyrimidin-4-yl)-2-(3-methyl-3,8-diazabicyclo[3.2.1]-octan-8-yl)thiazol-4-yl)-2-fluorophenyl)-isoindoline-2-sulfonamide]: the IC50 is 0.0725 µM.

Turning to `CC(C)(C)c1nc(-c2cccc(NS(=O)(=O)N3Cc4ccc(F)cc4C3)c2F)c(-c2ccnc(NC3CCN(S(C)(=O)=O)CC3)n2)s1` [Example 70, N-(3-(2-(tert-butyl)-5-(2-((1-(methylsulfonyl)-piperidin-4-yl)amino)-pyrimidin-4-yl)thiazol-4-yl)-2-fluoro-phenyl)-5-fluoroisoindoline-2-sulfonamide], the IC50 came to 0.094 µM.

Take `CC(C)(C)c1nc(-c2cccc(NS(=O)(=O)N3CCc4c3cccc4C(C)(C)O)c2F)c(-c2ccnc(NC3CC4(C3)CS(=O)(=O)C4)n2)s1` [Example 230, N-(3-(2-(tert-butyl)-5-(2-((2,2-dioxido-2-thiaspiro[3.3]heptan-6-yl)amino)-pyrimidin-4-yl)thiazol-4-yl)~2-fluoro-phenyl)-4-(2-hydroxypropan-2-yl)-indoline-1-sulfonamide]: the half-maximal inhibitory concentration (IC50) amounted to 0.354 µM.

In the case of `O=S1(=O)CC2(CC(Nc3nccc(-c4sc(C56CC(C5)C6)nc4-c4cccc(NS(=O)(=O)N5C6CCC5c5ccccc56)c4F)n3)C2)C1` [Example 268, N-(3-(2-(bicyclo [1.1.1]pentan-1-yl)-5-(2-((2,2-dioxido-2-thiaspiro[3.3]heptan-6-yl)amino)-pyrimidin-4-yl)thiazol-4-yl)-2-fluorophenyl)-1,2,3,4-tetrahydro-1,4-epiminonaphthalene-9-sulfonamide], the IC50 was 8.31 µM.

As for `C[C@H]1COC[C@H](C)N1c1nc(-c2cccc(NS(=O)(=O)N3CCc4ccc(C(F)(F)F)cc43)c2F)c(-c2ccnc(N[C@H]3CC[C@H](S(C)(=O)=O)CC3)n2)s1` [Example 297, N-(3-(2-((38, 5S)-3,5-dimethyl-morpholino)-5-(2-(((1r,4S)-4-(methyl-sulfonyl)cyclohexyl)amino)pyrimidin-4-yl)thiazol-4-yl)-2~fluorophenyl)-6-(trifluoromethyl) indoline-1-sulfonamide], the IC50 was determined as 0.103 µM.

`CC(C)(C)c1nc(-c2cccc(NS(=O)(=O)N3CCC4(CCC4)C3)c2F)c(-c2ccnc(NC3CC4(C3)CS(=O)(=O)C4)n2)s1` [Example 182, N-(3-(2-(tert-butyl)-5-(2-((2,2-dioxido-2-thiaspiro[3.3]heptan-6-yl)amino)-pyrimidin-4-yl)thiazol-4-yl)-2-fluoro-phenyl)-6-azaspiro[3.4] octane-6-sulfonamide]: the IC50 was 1.19 µM.

Turning to `CC(C)(C)c1nc(-c2cccc(NS(=O)(=O)N3Cc4ccncc4C3)c2F)c(-c2ccnc(NC3CCN(S(C)(=O)=O)CC3)n2)s1` [Example 103, N-(3-(2-(tert-butyl)-5-(2-((1-(methylsulfonyl)piperidin-4-yl)amino)-pyrimidin-4-yl)thiazol-4-yl)-2 fluorophenyl)-1,3-dihydro-2H-pyrrolo[3,4-c] pyridine-2-sulfonamide], the half-maximal inhibitory concentration (IC50) came out at 0.142 µM.

For orientation: IC50 means the point on the concentration scale where inhibition reaches its midpoint.
